Test results: US9708336B2, “Metallo-beta-lactamase inhibitors” (priority 2014, dated 2017)
Read-outs that look alike come from different tables or passages of the source.

Columns and labels:
NDM-1 = NDM-1 (Klebsiella pneumoniae, UniProt C7C422); assay: biochemical; type: biochemical; settings: read-out: NDM-1 IC50
[1] = system: Escherichia coli expressing NDM-1 (CLB30016); assay: Antibiotic potentiation activity: synergistic concentration (MITC95) with imipenem, OD600 growth; type: cell-based
Method in brief: (§1)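 Overnight colonies (35 °C) were suspended in saline, diluted 1:100 into 1.1× CAMHB, and exposed to test compound with imipenem at 4 μg/ml (optionally 1 μg/ml) in assay. After 22–24 h at 35 °C, growth was read by absorbance.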

[2] = system: Serratia marcescens expressing IMP-1 (CL5741); assay: as above; type: cell-based
Method in brief: as §1

[3] = system: Klebsiella pneumoniae expressing VIM-1 (IHMA599644); assay: as above; type: cell-based
Method in brief: as §1

IMP-1 = IMP-1 (Serratia marcescens, UniProt P52699); assay: biochemical; type: biochemical; settings: read-out: IMP-1 IC50
Sequence of IMP-1 (P52699 whole entry, looked up): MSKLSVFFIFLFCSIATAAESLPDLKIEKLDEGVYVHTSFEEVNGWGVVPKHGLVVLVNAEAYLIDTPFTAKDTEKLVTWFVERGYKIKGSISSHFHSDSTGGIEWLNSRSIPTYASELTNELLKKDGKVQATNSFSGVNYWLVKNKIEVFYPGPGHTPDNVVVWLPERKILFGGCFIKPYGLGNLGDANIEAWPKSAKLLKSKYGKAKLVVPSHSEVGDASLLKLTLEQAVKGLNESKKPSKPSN

VIM-1 = VIM-1 (Pseudomonas aeruginosa (strain ATCC 15692 / DSM 22644 / CIP 104116 / JCM 14847 / LMG 12228 / 1C / PRS 101 / PAO1), UniProt A0A0F7KYQ8); assay: Enzyme activity: determination of IC50, fluorescence assay with CCF2-FA substrate (VIM-1); type: biochemical
[4] = NDM-1 enzyme, CCF2-FA fluorescence assay
[5] = Escherichia coli expressing NDM-1 (CLB30016), 95% growth inhibition
[6] = Serratia marcescens expressing IMP-1 (CL5741), 95% growth inhibition
[7] = Klebsiella pneumoniae expressing VIM-1 (IHMA599644), 95% growth inhibition
[8] = IMP-1 enzyme, CCF2-FA fluorescence assay
[9] = VIM-1 enzyme, CCF2-FA fluorescence assay, read-out: VIM-1 IC50
[10] = NDM-1 enzyme, CCF2-FA substrate
[11] = (CLB30016, NDM-1), 95% growth inhibition
[12] = Serratia marcescens CL5741 (IMP-1), 95% growth inhibition
[13] = Klebsiella pneumoniae IHMA599644 (VIM-1), 95% growth inhibition
[14] = IMP-1 enzyme, CCF2-FA substrate
[15] = VIM-1 enzyme, CCF2-FA substrate, read-out: VIM-1 IC50
[16] = VIM-1 IC50, VIM-1 enzyme, CCF2-FA fluorescence assay
[17] = VIM-1 IC50, VIM-1 enzyme, CCF2-FA substrate
[18] = fluorescence assay with CCF2-FA substrate
[19] = fluorescence assay with CCF2-FA substrate, read-out: VIM-1 IC50
[20] = concentration giving 95% inhibition of bacterial growth

Sequence of NDM-1 (C7C422 whole entry, looked up, species assumed): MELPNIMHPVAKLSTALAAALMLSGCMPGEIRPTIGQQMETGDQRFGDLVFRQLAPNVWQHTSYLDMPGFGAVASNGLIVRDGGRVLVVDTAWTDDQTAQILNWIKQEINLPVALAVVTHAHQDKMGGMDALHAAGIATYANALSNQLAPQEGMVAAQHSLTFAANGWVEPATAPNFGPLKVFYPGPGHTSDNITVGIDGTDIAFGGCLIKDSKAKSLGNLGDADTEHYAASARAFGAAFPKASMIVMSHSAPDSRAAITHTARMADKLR

Row | Compound | IC50 (NDM-1; [4]) | Escherichia coli MITC95 [1, 5] | Serratia marcescens MITC95 [2, 6] | Klebsiella pneumoniae MITC95 [3, 7] | IC50 (IMP-1; [8]) | IC50 (NDM-1; [10]) | Escherichia coli MITC95 [1, 11] | Serratia marcescens MITC95 [2, 12] | Klebsiella pneumoniae MITC95 [3, 13] | IC50 (IMP-1; [14]) | IC50 (VIM-1; [17]) | also measured
1 | Nc1nc2c(-c3ccc(C(F)(F)F)c(S(N)(=O)=O)c3-c3nnn[nH]3)cccc2s1 [Example 423, 3-(2-amino-1,3-benzothiazol-4-yl)-2-(2H-tetrazol-5-yl)-6-(trifluoromethyl)benzenesulfonamide] | 0.378 nM | 1.086 µM | 0.125 µM | 3.125 µM | 1.29 nM | – | – | – | – | – | – | IC50 (VIM-1; [9]): 0.711 nM
2 | NCCS(=O)(=O)c1ccc(-c2ccc(C(F)(F)F)c(S(N)(=O)=O)c2-c2nnn[nH]2)cc1 [Example 736, 4′-[(2-aminoethyl)sulfonyl]-2-(1H-tetrazol-5-yl)-4-(trifluoromethyl)biphenyl-3-sulfonamide] | – | – | – | – | – | 3.23 nM | 6.25 µM | 6.25 µM | 6.25 µM | 3.23 nM | – | IC50 (VIM-1; [15]): 1.59 nM
3 | N=C(N)N1CCC(N)(c2ccc(-c3ccc(C(F)(F)F)c(S(N)(=O)=O)c3-c3nn[nH]n3)cc2)CC1 [Example 438, 4-amino-4-(3′-sulfamoyl-2′-(2H-tetrazol-5-yl)-4′-(trifluoromethyl)-[1,1′-biphenyl]-4-yl)piperidine-1-carboximidamide] | 3.67 nM | 0.125 µM | 0.25 µM | 2.563 µM | 4.05 nM | – | – | – | – | – | – | IC50 (VIM-1; [16]): 10.8 nM
4 | NC1CCC(N[C@H]2CC[C@H](c3ccc(C(F)(F)F)c(S(N)(=O)=O)c3-c3nnn[nH]3)CC2)CC1 (stereo partly drawn) [Example 690, 3-{4-[(4-aminocyclohexyl)amino]cyclohexyl}-2-(1H-tetrazol-5-yl)-6-(trifluoromethyl)benzene sulfonamide] | – | – | – | – | – | 12.6 nM | 1.563 µM | 3.125 µM | 25 µM | 75.9 nM | 5.26 nM | –
5 | NS(=O)(=O)c1c(C(F)(F)F)ccc(-c2cnc(N3CCNCC3)nc2)c1-c1nnn[nH]1 [Example 706, 3-(2-piperazin-1-ylpyrimidin-5-yl)-2-(1H-tetrazol-5-yl)-6-(trifluoromethyl)benzenesulfon-amide] | – | – | – | – | – | 4.52 nM | 3.125 µM | 6.25 µM | 1.563 µM | 12.4 nM | 0.632 nM | –
6 | NS(=O)(=O)c1c(CC[C@H]2CC[C@H](N)CC2)ccc(-c2ccc(C3CCNC3)cc2)c1-c1nnn[nH]1 (stereo partly drawn) [Example 584, 4-(2-((1r,4s)-4-aminocyclohexyl)ethyl)-4′-(pyrrolidin-3-yl)-2-(1H-tetrazol-5-yl)-[1,1′-biphenyl]-3-sulfonamide] | – | – | – | – | – | 2.05 nM | 1.563 µM | 1.563 µM | 6.25 µM | 10.2 nM | – | IC50 (VIM-1; [15]): 1.61 nM
7 | C[C@@H](O)[C@H](NCc1ccc(-c2cccc(S(N)(=O)=O)c2-c2nnn[nH]2)cc1)C(=O)O [Example 357, N-{[3′-sulfamoyl-2′-(1H-tetrazol-5-yl)biphenyl-4-yl]methyl}-L-threonine] | 12.5 nM | 3.125 µM | 4.688 µM | 25 µM | 182 nM | – | – | – | – | – | – | IC50 (VIM-1; [9]): 287 nM
8 | NS(=O)(=O)c1c(C(F)(F)F)ccc([C@H]2CC[C@@H](C3CCNCC3)CC2)c1-c1nnn[nH]1 [Example 831, 3-((1s,4s)-4-(piperidin-4-yl)cyclohexyl)-2-(1H-tetrazol-5-yl)-6-(trifluoromethyl)benzenesulfonamide] | – | – | – | – | – | – | – | – | – | – | – | IC50 (NDM-1; [18]): 0.817 nM; Escherichia coli MITC95 ([1]; CLB30016 (NDM-1), 95% inhibition of bacterial growth): 2.344 µM; Serratia marcescens MITC95 ([2]; CL5741 (IMP-1), 95% inhibition of bacterial growth): 3.125 µM; Klebsiella pneumoniae MITC95 ([3]; IHMA599644 (VIM-1), 95% inhibition of bacterial growth): 50 µM; IC50 (IMP-1; [18]): 0.892 nM; IC50 (VIM-1; [19]): 2.84 nM
9 | NS(=O)(=O)Cc1cccc(-c2ccc(C(F)(F)F)c(S(N)(=O)=O)c2-c2nnn[nH]2)c1 [Example 737, 3′-(sulfamoylmethyl)-2-(1H-tetrazol-5-yl)-4-(trifluoromethyl)biphenyl-3-sulfonamide] | – | – | – | – | – | 4.95 nM | 6.25 µM | 3.125 µM | 25 µM | 3.02 nM | 4.29 nM | –
10 | NC1CCCc2ccc(-c3ccc(C(F)(F)F)c(S(N)(=O)=O)c3-c3nnn[nH]3)cc21 (stereo not drawn) [Example 731, 3-(8-amino-5,6,7,8-tetrahydronaphthalen-2-yl)-2-(1H-tetrazol-5-yl)-6-(trifluoromethyl)benzenesulfon-amide] | – | – | – | – | – | 61.3 nM | 25 µM | 50 µM | 50 µM | 117 nM | 22.1 nM | –
11 | Nc1cc(-c2ccc(C(F)(F)F)c(S(N)(=O)=O)c2-c2nnn[nH]2)cc(N)n1 [Example 714, 3-(2,6-diaminopyridin-4-yl)-2-(1H-tetrazol-5-yl)-6-(trifluoromethyl)benzenesulfon-amide] | – | – | – | – | – | 5.05 nM | 1.563 µM | 12.5 µM | 3.125 µM | 31.7 nM | 0.799 nM | –
12 | NC[C@H]1CC[C@@H](c2ccc(CCC3CCNCC3)c(S(N)(=O)=O)c2-c2nnn[nH]2)CC1 [Example 592, 3-((1s,4s)-4-(aminomethyl)cyclohexyl)-6-(2-(piperidin-4-yl)ethyl)-2-(1H-tetrazol-5-yl)benzenesulfonamide] | – | – | – | – | – | 8.6 nM | 1.563 µM | 3.125 µM | 12.5 µM | 84.1 nM | – | IC50 (VIM-1; [15]): 34.8 nM
13 | CN1CC(NCc2ccc(-c3cccc(S(N)(=O)=O)c3-c3nnn[nH]3)cc2)C1 [Example 331, 4′-(((1-methylazetidin-3-yl)amino)methyl)-2-(1H-tetrazol-5-yl)-[1,1′-biphenyl]-3-sulfonamide] | 30.6 nM | 1.172 µM | 6.25 µM | 150 µM | 392 nM | – | – | – | – | – | – | IC50 (VIM-1; [9]): 1190 nM
14 | NC1=NCC(c2ccc(-c3cccc(S(N)(=O)=O)c3-c3nnn[nH]3)cc2)CN1 (stereo not drawn) [Example 511, 4′-(2-Amino-1,4,5,6-tetrahydropyrimidin-5-yl)-2-(1H-tetrazol-5-yl)-[1,1′-biphenyl]-3-sulfonamide] | – | – | – | – | – | 4.8 nM | 3.125 µM | 3.125 µM | 100 µM | 14.3 nM | 41.6 nM | –
15 | NS(=O)(=O)c1cccc(-c2ccc(CNCCc3cn[nH]c3)cc2)c1-c1nnn[nH]1 [Example 385, 4′-({[2-(1H-pyrazol-4-yl)ethyl]amino}methyl)-2-(1H-tetrazol-5-yl)biphenyl-3-sulfonamide] | 12.5 nM | 1.563 µM | 6.25 µM | 50 µM | 499 nM | – | – | – | – | – | – | IC50 (VIM-1; [9]): 357 nM
16 | NC(=O)CCc1ccc(-c2ccc(C(F)(F)F)c(S(N)(=O)=O)c2-c2nn[nH]n2)cc1 [Example 449, 3-(3′-sulfamoyl-2′-(2H-tetrazol-5-yl)-4′-(trifluoromethyl)-[1,1′-biphenyl]-4-yl)propanamide] | 0.653 nM | 0.7813 µM | 0.1953 µM | 6.25 µM | 0.537 nM | – | – | – | – | – | – | IC50 (VIM-1; [16]): 0.815 nM
17 | NCCCCNc1nc2c(-c3cccc(S(N)(=O)=O)c3-c3nnn[nH]3)cccc2s1 [Example 642, 3-[2-(4-aminobutylamino)-1,3-benzothiazol-4-yl]-2-(1H-tetrazol-5-yl)benzenesulfonamide] | – | – | – | – | – | 1.01 nM | 1.563 µM | 25 µM | 50 µM | 51.9 nM | – | IC50 (VIM-1; [15]): 9 nM
18 | NS(=O)(=O)c1cccc(-c2cnn(CCN3CCOCC3)c2)c1-c1nnn[nH]1 [Example 126, 3-(1-(2-morpholinoethyl)-1H-pyrazol-4-yl)-2-(1H-tetrazol-5-yl)benzenesulfonamide] | – | – | – | – | – | – | – | – | – | – | – | IC50 (NDM-1; [18]): 166 nM; Escherichia coli expressing NDM-1 (CLB 30016) MITC95 [1, 20]: 6.25 µM; Serratia marcescens expressing IMP-1 (CL5741) MITC95 [2, 20]: 25 µM; Klebsiella pneumoniae expressing VIM-1 (IHMA 599644) MITC95 [3, 20]: >200 µM; IC50 (IMP-1; [18]): 864 nM; IC50 (VIM-1; [19]): 14400 nM
